Here are results for seven compounds from ChEMBL document CHEMBL3045358, “Synthesis of kojic acid-derived copper-chelating apoptosis inducing agents” (2013).

Structures are written as SMILES. Active and inactive are the calls of the source. The calls are words filed in the database; no cut-off is given here.

Assay [1] concerns HeLa. Kind of assay: Antiproliferative activity against Homo sapiens (human) HeLa cells assessed as growth inhibition at 25 uM after 48 hr by MTT assay in presence of 50 uM CuCl2. In kind it is functional. On the technique in general: Tetrazolium dyes change colour on reduction, which living cells bring about.
Assay [2] has as its system HeLa. The assay is described as follows: Antiproliferative activity against Homo sapiens (human) HeLa cells assessed as growth inhibition at 25 uM after 48 hr by MTT assay. In kind it is functional, cell-based.
The subject of assay [3] is HeLa. The assay is described as follows: Induction of apoptosis in Homo sapiens (human) HeLa cells assessed as PARP cleavage at 15 uM after 24 hr by Western blot analysis in presence of 50 uM CuCl2. In kind it is functional, cell-based. A general note: Immunoblotting shows a protein as a band on a membrane.
Assay [4] deals with HeLa. Kind of assay: Induction of cell cycle arrest in Homo sapiens (human) HeLa cells assessed as accumulation of cells at sub-G1 phase at 15 uM after 24 hr by propidium iodide staining based flow cytometry in presence of 50 uM CuCl2 (reference value: 3.22%). In kind it is functional. (In general: Flow cytometry measures light scatter and fluorescence of single cells or particles in a stream.)

Assay [5] concerns HeLa. Kind of assay: Induction of cell cycle arrest in Homo sapiens (human) HeLa cells assessed as accumulation of cells at sub-G1 phase at 15 uM after 24 hr by propidium iodide staining based flow cytometry (reference value: 3.41%). In kind it is functional.
Assay [6] concerns HeLa. The assay is described as follows: Induction of cell cycle arrest in Homo sapiens (human) HeLa cells assessed as accumulation of cells at sub-G1 phase at 5 uM after 24 hr by propidium iodide staining based flow cytometry in presence of 50 uM CuCl2 (reference value: 3.22%). In kind it is functional.
In assay [7] the test system is HeLa. The assay is described as follows: Induction of cell cycle arrest in Homo sapiens (human) HeLa cells assessed as accumulation of cells at sub-G1 phase at 5 uM after 24 hr by propidium iodide staining based flow cytometry (reference value: 3.41%). In kind it is functional.
In assay [8] the test system is HeLa. The assay is described as follows: Antiproliferative activity against Homo sapiens (human) HeLa cells assessed as growth inhibition after 48 hr by MTT assay in presence of 50 uM CuCl2. In kind it is functional.
For assay [9], the system named is HeLa. The assay is described as follows: Antiproliferative activity against Homo sapiens (human) HeLa cells assessed as growth inhibition at 75 uM after 48 hr by MTT assay. In kind it is functional. Conditions: read-out: GI.
Assay [10] deals with MAP kinase p38 (Homo sapiens) (UniProt O15264+Q15759+Q16539+P53778). Kind of assay: Increase in p38 MAPK phosphorylation in Homo sapiens (human) HeLa cells at 15 uM after 24 hr by Western blot analysis in presence of 50 uM CuCl2. In kind it is cell-based.
In assay [11] the test system is HeLa. Kind of assay: Increase in ERK phosphorylation in Homo sapiens (human) HeLa cells at 15 uM after 24 hr by Western blot analysis in presence of 50 uM CuCl2. In kind it is cell-based.
The subject of assay [12] is HeLa. The assay is described as follows: Induction of apoptosis in Homo sapiens (human) HeLa cells assessed as decrease in 32 kDa procaspase-3 level at 15 uM after 24 hr by Western blot analysis in presence of 50 uM CuCl2. In kind it is functional, cell-based.
In assay [13] the test system is HeLa. The assay is described as follows: Induction of cell cycle arrest in Homo sapiens (human) HeLa cells assessed as accumulation of cells at sub-G1 phase at 25 uM after 24 hr by propidium iodide staining based flow cytometry in presence of 50 uM CuCl2 (reference value: 3.22%). In kind it is functional.
Assay [14] relates to HeLa. The assay is described as follows: Induction of cell cycle arrest in Homo sapiens (human) HeLa cells assessed as accumulation of cells at sub-G1 phase at 25 uM after 24 hr by propidium iodide staining based flow cytometry (reference value: 3.41%). In kind it is functional.
Assay [15] has as its system HeLa. Kind of assay: Antiproliferative activity against Homo sapiens (human) HeLa cells assessed as growth inhibition after 48 hr by MTT assay. In kind it is functional.

As for `O=c1cc(/C=C/c2ccc(O)c(O)c2)occ1O`, the “growth inhibition (GI)” value with HeLa [1] and with HeLa [2] was “inactive” in each case.

Regarding `O=c1cc(CN2CCN(S(=O)(=O)c3ccccc3)CC2)occ1O`, in the assay with HeLa [1], the “growth inhibition (GI)” value is listed as 35%.

The GI50 is the concentration that inhibits growth by half. Consider `O=c1cc(COc2cccc3cccnc23)occ1O`, for which the outcome (in the assay on HeLa [3]; in assay [10]; with HeLa [11]; with HeLa [12]) was Active. Further, the Activity amounted to 48.56% with HeLa [4], 5.85% in the assay on HeLa [5], 11.58% in the assay on HeLa [6] and 5.09% with HeLa [7]. In addition, the concentration for 50% growth inhibition (GI50) in the assay with HeLa [8] was 7.1 µM. Besides, in the assay with HeLa [9], the inhibition of growth at 75 µM is 15.2%. For the same compound, the “growth inhibition (GI)” value in the assay on HeLa [1] turned out to be 95%. Also, the “growth inhibition (GI)” value with HeLa [2] was “inactive”.

`O=c1cc(CO)occ1O` [KOJIC ACID]: the Activity in the assay on HeLa [13] is on record as 3.57%; in the assay with HeLa [14], 2.16%. The “growth inhibition (GI)” value in the assay with HeLa [1] and in the assay with HeLa [2] was “inactive” each time.

As to `O=c1cc(/C=C/c2ccccc2)occ1O`, the GI50 amounted to 11.9 µM with HeLa [8] and 64.5 µM in the assay with HeLa [15]. For the same compound, the “growth inhibition (GI)” value with HeLa [1] is listed as 90%. Moreover, in the assay with HeLa [2], the “growth inhibition (GI)” value was “inactive”.

On to `O=c1cc(COc2cccc(O)c2)occ1O`, for which the “growth inhibition (GI)” value in the assay on HeLa [1] and in the assay on HeLa [2] was “inactive” in each case.

Take `COc1ccc(COc2coc(/C=C/c3ccccc3)cc2=O)cc1`: the “growth inhibition (GI)” value in the assay with HeLa [1] was “inactive”.
